Data from patent US5214036A, “Benzoporphyrin derivatives for photodynamic therapy” (University of British Columbia, priority 1990, dated 1993).

Key:
[1] = Absorption spectrum / absorption maximum; format: physicochemical; conditions: FIG. 3
VLDL = assay: Step density gradient of BPD added to isolated lipoprotein fraction; format: in vitro ADME, human; conditions: added to lipoprotein fraction after separation of albumin, % of total added
Description: (§1) (b) Determining BPD Plasma Distribution. Experiments were performed to determine the association of BPDs with plasma protein and lipoprotein fractions. When density ultracentrifugation was used for the analysis, 2 ml samples of human plasma were incubated for 18 hours at 4° C. in the presence of 100 μg of ^3 H-BPD-MA. The BPD-plasma solution was then adjusted to a density of 1.21 g/ml by the addition of solid KBr. A step gradient was prepared using stock KBr density solutions at 1.006, 1.019, and 1.063 g/ml, layered manually into the bottom of centrifuge tubes using a glass syringe and a narrow bore needle. The BPD-plasma solution was then layered into the bottom of the tube. Separation of the plasma proteins was accomplished by centrifugation in a Beckman SW 41 rotor for 24 hours at 40,000 rpm and 15° C. 0.5 ml fractions were collected, and the protein content of each fraction was monitored by measuring absorbance at 280 nm. 100 μl of each fraction was mixed with 5 ml Aquasol (NEN) and counted in a liquid scintillation counter.
(§2) To improve the HDL-albumin resolution, albumin was removed by ultracentrifugation. Plasma was mixed with ^14 C-BPD-MA and incubated for 18 hours at 4° C. The density of the mixture was then adjusted to 1.21 g/ml by the addition of solid KBr, followed by centrifugation at 40,000 rpm for 48 hours. […] The lipoprotein and lipoprotein-depleted fractions were counted for BPD-MA content. 82% of total ^14 C-BPD-MA added was recovered in the plasma lipoprotein fraction and 5% in the lipoprotein deficient fraction.
(§3) When albumin and other serum proteins were separated from the lipoprotein fraction before the addition of ^14 C-BPD-MA, a shift in binding was observed. After step density gradient separation, the majority of BPD-MA was still recovered with HDL (38% of total ^14 C-BPD-MA added); however in this case, the association with LDL and VLDL fractions appeared to be equivalent (17% with LDL and 18% with VLDL) (FIG. 5). […] Polyacrylamide gel electrophoresis of the HDL fractions from these density gradients confirmed that very little albumin was present. […]

LDL = assay: as above; format: in vitro ADME, human; conditions: added to lipoprotein fraction after separation of albumin, % of total added
Description: as §1, §2, §3

HDL = assay: as above; format: in vitro ADME, human; conditions: added to lipoprotein fraction after separation of albumin, % of total added
Description: as §1, §2, §3

[2] = background; cited from earlier work
[3] = system: high density lipoproteins (HDLs); conditions: Barel et al.; cited from earlier work

Row | SMILES | major absorption peak [1] | associated with VLDL (VLDL) | associated with LDL (LDL) | recovered with HDL (HDL) | additional absorbance [2] | maximum absorbance [2] | affinity for high density lipoproteins [3]
1 | C=Cc1c(C)c2cc3nc(cc4[nH]c(cc5nc(cc1[nH]2)C(C)=C5CCC(=O)O)c(CCC(=O)O)c4C)C1(C)C3=CC=C(C(=O)OC)C1C(=O)OC (stereo not shown) [BPD-DA] | about 685 nm | 20% | 13% | 54% | – | – | –
2 | CC1=C(CCC(=O)O)c2cc3[nH]c(cc4nc(cc5[nH]c(cc1n2)c(C)c5C(C)O)C(C)=C4C(C)O)c(C)c3CCC(=O)O (stereo not shown) [hematoporphyrin] | – | – | – | – | around 630 nm | around 400 nm | higher affinity for high density lipoproteins (HDLs)
